{"source": "patent US4049795A", "about": "“Treatment of hemorrhagic shock” (priority 1974, dated 1977)", "key": {"hemorrhagic shock": {"system": "hemorrhagic shock", "experiment": "Irreversible hemorrhagic shock (WIGGERS) in dogs", "details": "irreversible shock", "quoted_text": "These experiments were carried out with dogs. […] Spontaneous reinjection, by progressive circulatory failure, of a quarter of the mass of blood effused during the second hemmorhage, was chosen as the irreversibility criterion. The following parameters were measured: pH, arterial and venous CO2 pressure (with a radiometertype apparatus), lactacidemia, pyruvicemia and glycemia (by the enzymatic method), and kalemia (with a flame photometer). Samples were taken from the dogs before irreversibility, immediately after, one hour 11/2 hours and 2R hours thereafter. The blood pressure was followed by femoral intubation and recorded with an apparatus providing mean arterial bloodpressure readings."}, "Rabbit atrium": {"system": "Rabbit atrium", "experiment": "Isolated rabbit atrium", "details": "rabbit atrium", "description": "The technique used for this study was the same as that described above for the ileum of the rabbit, but replacing the ileum with bled rabbit atrium. The preservation liquid used as LOCKE's liquid."}, "glucidic metabolism": {"system": "glucidic metabolism", "experiment": "Glucidic metabolism under intravenous perfusion in rabbits (lactacidemia, pyruvicemia, glycemia)", "type": "in vivo, rabbit", "details": "30 and 60 minutes after perfusion", "method": "These tests were carried out on rabbits weighing an average of 2.500 kg.\nA trachetomy was carried out under local anaesthesia with procaine. […] A saphenous vein and the two femoral arteries were catheterized under local anaesthesia in order to register the blood pressure by a manometer and to take blood samples; a jugular vein was catheterized to the base of the skull to sample cerebral venous blood.\nThe results obtained were compared with those obtained following a perfusion carried out in the same way with sodium d,l-lactate at a dose of 40 mg/kg/min.\nThe glycemia was measured by the enzymatic method in the arterial and cerebral venus blood. The samples were taken before the perfusion, at the end of the perfusion, and at 30 minutes and 60 minutes after perfusion."}, "[1]": {"system": "reticulo-endothelial system", "experiment": "Phagocytic activity of the reticulo-endothelial system, carbon clearance (HALPERN)", "type": "in vivo, rabbit", "details": "FIGS. 3 and 4", "description": "That technique is based on the study of the kinetics of the disappearance in the blood of particles of carbon injected into the vein. The kinetics of disappearance follow the equation [formula] in which formula C1 is the concentration of carbon in the blood at time T1 and C2 is the concentration of carbon in the blood at time T2, K being a constant. The constant K, called phagocytic index, represents the phagocytic activity of the cells of the reticule-endothelial system under the experimental conditions. For the tests, the technique and carbon suspension described by […]. Physiol. of Paris, Vol. 50, p. […] The study was done on rabbits of the same stock, male or female, or an average weight of about 2.5 kg, devided into four batches of four animals each. The first batch was used as controls and received, by slow intravenous injection, 10 ml of a 0.8% solution of sodium chloride ten minutes before the injection of 4 mg of carbon per 100 g of animal. […] In all the tests, a total volume of 10 ml was injected with a fairly closely related injection speed (less than five minutes)."}, "[2]": {"system": "free fatty acids in the plasma", "experiment": "Non-esterified fatty acids in the plasma (DOLE)", "type": "in vivo, rabbit", "method": "Doses of 1 and 2 mg of adrenalin were introduced subcutaneously into rabbits weighing 2.5 to 3.5 kg.\nFIGS. 8, 9 and 10 show the variation in the percentage of non-esterified fatty acids in the plasma as a function of the time. […]"}, "Rabbit ileum": {"system": "Rabbit ileum", "experiment": "Isolated rabbit ileum, tonus", "details": "without dihydroxyacetone", "method": "Fragments of the ileum were suspended in a 75 ml isolated organ tank containing Tyrode's solution maintained at 37° C. by a thermostat and oxygenated by bubbling pure oxygen at a constant rate of flow. The movement of the organ were recorded by means of a lever on a cylinder rotating at a known constant speed."}}}
{"compound": "O=C[C@H](O)[C@@H](O)[C@H](O)[C@H](O)CO", "note": "[hypertonic glucose, glucose, reference compound]", "values": [{"measurement": "effect on the blood pressure in hemorrhagic shock", "setting": "hemorrhagic shock", "value": "no effect"}, {"measurement": "effect on the blood pressure in hemorrhagic shock", "setting": "hemorrhagic shock; listed as 30% glucose", "value": "none"}]}
{"compound": "CC(O)C(=O)O", "note": "(racemic) [sodium lactate, sodium d,l-lactate, reference compound]", "values": [{"measurement": "action on rhythm of atrium", "setting": "Rabbit atrium", "value": "accelerates the rhythm"}, {"measurement": "lactacidemia at 30 and 60 minutes after the end of perfusion", "setting": "glucidic metabolism", "value": "tended to return to its initial values"}, {"measurement": "rate of phagocytosis", "setting": "[1]", "value": "increased"}]}
{"compound": "CNCC(O)c1ccc(O)c(O)c1", "note": "(stereo not drawn) [adrenalin]", "values": [{"measurement": "proportion of non-esterified fatty acids one hour after injection", "setting": "[2]; 1 mg of adrenalin, FIG. 9", "value": "fell below normal"}, {"measurement": "proportion of non-esterified fatty acids one hour after injection", "setting": "[2]; 2 mg of adrenalin, FIG. 8", "value": "again increased"}, {"measurement": "average proportion of non-esterified fatty acids about 10 to 15 minutes after injection", "setting": "[2]; 1 or 2 mg of adrenalin, fed rabbits", "value": "increased"}]}
{"compound": "[Cl-].[K+]", "note": "[Potassium chloride, reference compound]", "values": [{"measurement": "tonus of the fiber, ordinary effect", "setting": "Rabbit ileum", "value": "increases the tonus of the fiber in a stable manner"}]}
